{"source": "patent US20250388534A1", "about": "(SHENZHEN SHINEHIGH INNOVATION CO., LTD., priority 2022, published 2025)", "key": {"[1]": {"assay": "Thermogravimetric analysis of thermal decomposition behavior", "format": "physicochemical", "settings": "heating rate 5.0 K/min, FIG. 2"}, "melanoma cells (B16)": {"system": "melanoma cells (B16)", "assay": "Cytotoxicity test by melanoma cells (B16)", "format": "cell-based", "settings": "PC 10% DMSO"}, "TNF-α": {"system": "TNF-α", "assay": "TPA-induced mouse ear edema model, TNF-α in ear tissue by ELISA", "format": "in vivo, mice", "settings": "salt 0.8 mg/ear, mandelic acid 0.39 mg/ear", "procedure": "(§1) TPA-induced mouse ear edema model and administration method. Male KM mice of SPF grade weighing 20 g to 23 g are acclimatized at a temperature of 25° C. and a relative humidity of 40% to 70% for 24 h (12 h each under alternating light and dark conditions), and given sufficient food and water to allow them to eat freely. The mice are randomly divided into 6 groups: blank group (BC), negative control group (NC), positive control group (PC), and 2 treatment groups. […] After 6 h, the mice are immediately killed by breaking their necks. The ear tissues are ground in liquid nitrogen, then ground tissues are transferred to a 4 mL EP tube, and 1 mL of T-PER tissue protein extraction reagent is added. The solution is mixed thoroughly for about 30 min, and then subjected to intermittent sonication for 10 s at 20 Hz, followed by 2 min of ultrasonic treatment to fully lyse the ear tissues. The mixture is centrifuged at 4° C. and 13000 r/min for 20 min. Supernatants are collected to determine the levels of the inflammatory factors IL-1α, TNF-α, and MIP-2 in ear tissues using the ELISA method."}, "[2]": {"assay": "ABTS+⋅ scavenging rate determination", "settings": "50 to 250 μg/mL, FIG. 7", "procedure": "(§2) The DPPH⋅ radical scavenging rate and ABTS^+⋅ scavenging rate are measured, and the test methods are as follows.\nABTS^+⋅ scavenging rate determination: ABTS solution (7 mmol/L) and potassium persulfate solution (2.45 mmol/L) are mixed in a 1:1 (v/v) ratio and shaken to prepare the ABTS stock solution, which is allowed to sit at room temperature for 12 h to 16 h (protected from light). Then, the ABTS stock solution is diluted with a phosphate buffer solution of 10 mmol/L and pH 7.4, and the absorbance A0 of the diluted solution is measured at a wavelength of 734 nm, aiming to reach 0.70±0.002. For each sample solution at different mass concentrations, 50 μL is taken and mixed with 750 μL of the ABTS assay solution. The mixture is thoroughly mixed and allowed to react for 6 min. The absorbance is measured at a wavelength of 734 nm as A1, with an absolute ethanol solution used in place of the ABTS solution to measure the absorbance as A2. VC is used as a positive control during the test, and the calculation of the ABTS^+⋅ scavenging rate follows Formula (2)."}, "MIP-2": {"system": "MIP-2", "assay": "TPA-induced mouse ear edema model, MIP-2 in ear tissue by ELISA", "format": "in vivo, mice", "settings": "salt 0.8 mg/ear, mandelic acid 0.39 mg/ear", "procedure": "as §1"}, "IL-1α": {"system": "IL-1α", "assay": "TPA-induced mouse ear edema model, IL-1α in ear tissue by ELISA", "format": "in vivo, mice", "settings": "salt 0.8 mg/ear, mandelic acid 0.39 mg/ear", "procedure": "as §1"}, "[3]": {"assay": "DPPH⋅ radical scavenging rate determination", "settings": "50 to 250 μg/mL, FIG. 6", "procedure": "as §2\nDPPH⋅ radical scavenging rate determination: For each sample solution at different mass concentrations, 0.2 mL is taken and mixed with 0.8 mL of a 60 μmol/L DPPH⋅ solution (prepared with absolute ethanol). The mixture is then reacted for 30 min in the dark, and the absorbance is measured at a wavelength of 517 nm as A1. The absorbance using 70% ethanol solution instead of the sample is measured as A0, and the absorbance using absolute ethanol instead of the DPPH⋅ solution is measured as A2. VC is used as a positive control during the test. The calculation of the DPPH⋅ radical scavenging rate is shown in Formula (2): […]"}, "[4]": {"system": "chick embryo chorioallantoic membrane (CAM)", "assay": "Eye irritation/corrosion chick embryo chorioallantoic membrane assay (irritation score IS)", "procedure": "The test method is as follows.\nPreparation of CAM: The viability of 9-day-old chick embryos is checked using fertilized eggs. The shell of the air cell is removed using dental serrated forceps to expose the white egg membrane, with care taken to avoid damaging the integrity of the membrane. A drop of 0.9% sodium chloride solution is added with a pipette to moisten the membrane. The inner membrane is carefully removed with forceps, ensuring that the vascular membrane is not damaged. At this point, the structure of the vascular system is observed again, and a judgment is made regarding its integrity and suitability for the test.\nPre-test: Two chick embryos are taken to assess the reactivity of this batch, with the duration of action limited to within 5 min. […]\nReaction evaluation method: 0.3 mL or 0.3 g of the test substance is applied to the CAM, ensuring that at least 50% of the CAM surface is covered by the test substance. The reaction of the CAM is observed, and the time at which each type of toxicity effect appears within 5 min of application is recorded.\nThe irritation score (IS) is a test conducted using the reaction time method, with the irritation score (IS) calculated using Formula (3), and the results are retained to two decimal places: […]\nsecH (bleeding time) refers to the average time observed for bleeding to begin on the CAM membrane, measured in seconds(s). secL (vascular lysis time) refers to the average time observed for vascular lysis to begin on the CAM membrane, measured in seconds(s). secC (clotting time) refers to the average time observed for clotting to begin on the CAM membrane, measured in seconds(s)."}, "tyrosinase": {"system": "tyrosinase", "assay": "In vitro tyrosinase inhibition assay (T-SHRH015-2018)", "format": "biochemical", "settings": "for Cellular tyrosinase activity inhibition (%): in vitro tyrosinase inhibition assay", "procedure": "(§3) And the cellular melanin content, tyrosinase activity, and tyrosinase inhibition rate are tested within a safe concentration."}, "[5]": {"system": "melanin synthesis in B16 cells", "assay": "Inhibition of melanin synthesis in B16 cells (T/SHRH027-2019)", "format": "cell-based", "procedure": "as §3"}, "cellular tyrosinase": {"molecular_target": "T1, cellular tyrosinase (Mus musculus, UniProt P11344)", "T1 construct": "endogenous in cells; host or cells: B16 melanoma cells", "T1 sequence (P11344 19-533)": "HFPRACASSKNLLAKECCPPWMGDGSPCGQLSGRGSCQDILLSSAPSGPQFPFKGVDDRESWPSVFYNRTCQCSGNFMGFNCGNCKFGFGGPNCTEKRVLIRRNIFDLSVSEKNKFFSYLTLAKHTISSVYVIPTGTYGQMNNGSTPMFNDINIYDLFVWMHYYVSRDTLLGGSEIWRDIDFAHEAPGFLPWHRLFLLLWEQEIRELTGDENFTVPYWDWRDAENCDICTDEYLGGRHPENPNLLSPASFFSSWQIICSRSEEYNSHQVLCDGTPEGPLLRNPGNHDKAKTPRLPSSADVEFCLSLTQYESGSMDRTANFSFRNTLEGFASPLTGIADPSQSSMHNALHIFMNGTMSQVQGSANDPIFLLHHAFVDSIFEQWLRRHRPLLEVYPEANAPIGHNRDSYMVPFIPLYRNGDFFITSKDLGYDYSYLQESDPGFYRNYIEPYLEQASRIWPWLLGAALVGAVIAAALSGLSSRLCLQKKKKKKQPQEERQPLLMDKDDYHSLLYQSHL", "assay": "Cellular tyrosinase activity inhibition assay in B16 cells", "format": "cell-based", "procedure": "as §3"}, "[6]": {"settings": "mean of R1-R3, mouse ear tissue 6 h after TPA 2.0 μg/ear"}, "[7]": {"settings": "mouse ear tissue, 6 h after TPA"}, "[8]": {"settings": "replicate R1, mouse ear tissue 6 h after TPA 2.0 μg/ear"}, "[9]": {"settings": "replicate R3, mouse ear tissue 6 h after TPA 2.0 μg/ear"}, "[10]": {"settings": "reaction time method, single chick embryos 1-6, in s"}, "[11]": {"settings": "0.0006%, 0.0012%, 0.002% (m/V), p<0.05 vs blank control"}}, "note": "Values joined by “and” are separate entries in the source; they are usually repeats but may differ in a detail not shown here. Equal values may be shown once.", "data": [{"molecule": "NC[C@H]1CC[C@H](C(=O)O)CC1", "note": "[tranexamic acid]", "values": [{"measurement": "temperature at which thermal decomposition behavior begins", "setting": "[1]", "value": "around 77 °C"}]}, {"molecule": "C[S+](C)[O-]", "note": "[DMSO]", "values": [{"measurement": "Cell viability (%)", "setting": "melanoma cells (B16)", "value": "40.26% and 39.46%"}]}, {"molecule": "O=C(O)C(O)c1ccccc1", "note": "(centres unmarked) [mandelic acid, a-hydroxyphenylacetic acid]", "values": [{"measurement": "TNF-α Concentration", "setting": "TNF-α; [6]", "value": 85.98, "unit": "µg/mL"}, {"measurement": "level of TNF-α compared with the negative control group", "setting": "TNF-α; [7]", "value": "decrease"}, {"measurement": "TNF-α concentration, R1", "setting": "TNF-α; [8]", "value": 85.34, "unit": "µg/mL"}, {"measurement": "TNF-α concentration, R3", "setting": "TNF-α; [9]", "value": 88.27, "unit": "µg/mL"}, {"measurement": "ABTS+⋅ scavenging effect (ranking)", "setting": "[2]", "value": "weakest effect"}, {"measurement": "MIP-2 Concentration", "setting": "MIP-2; [6]", "value": 50.82, "unit": "µg/mL"}, {"measurement": "level of MIP-2 compared with the negative control group", "setting": "MIP-2; [7]", "value": "decrease"}, {"measurement": "MIP-2 concentration, R1", "setting": "MIP-2; [8]", "value": 51.32, "unit": "µg/mL"}, {"measurement": "MIP-2 concentration, R3", "setting": "MIP-2; [9]", "value": 50.98, "unit": "µg/mL"}, {"measurement": "temperature at which thermal decomposition behavior begins", "setting": "[1]", "value": "~135", "unit": "°C"}, {"measurement": "IL-1α Concentration", "setting": "IL-1α; [6]", "value": 28.51, "unit": "µg/mL"}, {"measurement": "level of IL-1α compared with the negative control group", "setting": "IL-1α; [7]", "value": "decrease"}, {"measurement": "IL-1α concentration, R1", "setting": "IL-1α; [8]", "value": 28.59, "unit": "µg/mL"}, {"measurement": "IL-1α concentration, R3", "setting": "IL-1α; [9]", "value": 29.31, "unit": "µg/mL"}, {"measurement": "DPPH⋅ radical scavenging effect (ranking)", "setting": "[3]", "value": "weakest effect"}, {"measurement": "irritation classification", "setting": "[4]; 2% aqueous solution of the salt, equivalent molar mandelic acid solution, CAM assay", "value": "mild irritation"}, {"measurement": "Test result: IS", "setting": "[4]; overall irritation score of 6 chick embryos", "value": "IS = 1.03"}, {"measurement": "Bleeding severity score", "setting": "[4]; reaction time method, single chick embryos 1-6", "value": 301, "unit": "s"}, {"measurement": "Coagulation score", "setting": "[4]; [10]", "value": "301 and 290 and 250"}, {"measurement": "Vascular lysis score", "setting": "[4]; [10]", "value": "260 and 280 and 290 and 301 and 210"}]}, {"molecule": "supramolecular tranexamic acid-citric acid ionic salt [Comparative Example 1]", "values": [{"measurement": "Cellular tyrosinase activity inhibition (%)", "setting": "tyrosinase; 0.625 % m/V", "value": 5.36, "unit": "%"}, {"measurement": "Cellular tyrosinase activity inhibition (%)", "setting": "tyrosinase; 1.25 % m/V", "value": 60.49, "unit": "%"}, {"measurement": "Cellular tyrosinase activity inhibition (%)", "setting": "tyrosinase; 2.50 % m/V", "value": 65.38, "unit": "%"}, {"measurement": "Cellular tyrosinase activity inhibition (%)", "setting": "tyrosinase; 5 % m/V", "value": 67.57, "unit": "%"}, {"measurement": "Cellular tyrosinase activity inhibition (%)", "setting": "tyrosinase; 10 % m/V", "value": 69.99, "unit": "%"}, {"measurement": "inhibition rate on tyrosinase", "setting": "tyrosinase; in vitro, concentrations of 1.25 to 10% (m/V)", "value": "above 60%"}, {"measurement": "Inhibition rate of cell melanin content (%)", "setting": "[5]; 0.0006% m/V", "value": 15.32, "unit": "%"}, {"measurement": "effect on cell melanin synthesis ability", "setting": "[5]; [11]", "value": "had an inhibitory effect on the cell melanin synthesis ability"}, {"measurement": "Inhibition rate of cell melanin content (%)", "setting": "[5]; 0.0012% m/V", "value": 18.19, "unit": "%"}, {"measurement": "Inhibition rate of cell melanin content (%)", "setting": "[5]; 0.0020% m/V", "value": 22.51, "unit": "%"}, {"measurement": "Cellular tyrosinase activity inhibition (%)", "setting": "cellular tyrosinase; 0.0006% m/V", "value": 2.17, "unit": "%"}, {"measurement": "effect on cellular tyrosinase activity", "setting": "cellular tyrosinase; [11]", "value": "had an inhibitory effect on cellular tyrosinase activity"}, {"measurement": "Cellular tyrosinase activity inhibition (%)", "setting": "cellular tyrosinase; 0.0012% m/V", "value": 10.05, "unit": "%"}, {"measurement": "Cellular tyrosinase activity inhibition (%)", "setting": "cellular tyrosinase; 0.0020% m/V", "value": 11.26, "unit": "%"}]}, {"molecule": "O=C1O[C@H]([C@@H](O)CO)C(O)=C1O", "note": "[VC]", "values": [{"measurement": "ABTS+⋅ scavenging effect (ranking)", "setting": "[2]", "value": "best scavenging effect"}, {"measurement": "DPPH⋅ radical scavenging effect (ranking)", "setting": "[3]", "value": "best scavenging effect"}]}]}
